Test results from PubChem BioAssay AID1963834 (Molecular Pharmacology Branch, DTP, NCI, 2024).
pIC50: −log10 of the molar value.

Test system: 873145-292-R-J1-PDC complex spheroid viability
Test: Anticancer human tumor 873145-292-R-J1-PDC patient-derived renal clear cell carcinoma cell line growth inhibition [POLQ]
Conditions: for pIC50: curve of first compound; for viability, T/C: stronger effect = lower value
Description: Multicellular complex tumor spheroid response to Polymerase (POL) inhibitors (novobiocin, ART-558, RP6685) in combination with a variety of drugs and investigational agents in selected tumor cell lines
The POL inhibitors (novobiocin, ART-558, and RP6685) were evaluated both individually and in combination with standard of care and investigational anticancer small molecules within a complex spheroid model of solid tumors. . Complex spheroids include a stromal component modeled by human endothelial cells (HUVEC) and fibroblasts modeled by human mesenchymal stem cells (MSCs). The concentration ranges selected for each drug and investigational agent were based upon clinically achievable concentrations if the clinical Cmax of the agent was known.
Compounds. The drugs and investigational agents: novobiocin (NSC847541), ART-558 (NSC835418), RP-6685 (NSC848927), peposertib (NSC802822), ceralasertib (NSC780249), elimusertib (NSC800525), camonsertib (NSC841442), AZD-1390 (NSC803789), olaparib (NSC753686), talazoparib (NSC767125), rucaparib (NSC756644), sotorasib (NSC818433), MRTX-1133 (NSC836407), SN-38 (NSC673596), topotecan (NSC609699), epotoside (NSC141540), doxorubicin (NSC123127), gemcitabine (NSC613327), 5-fluorouracil (NSC19893), paclitaxel (NSC125973), vemurafenib (NSC761431), MSA-2 (NSC828583), SN-011 (NSC837082), adavosertib (NSC754352), prexasertib (NSC758257), carboplatin (NSC241240) and oxaliplatin (NSC266046), were obtained from the National Cancer Institute (NCI) Developmental Therapeutics Program Chemical Repository (21). The FDA-approved anticancer drug set is available from the Developmental Therapeutics Program at https://dtp.cancer.gov/organization/dscb/obtaining/. […] The stock solutions were prepared in dimethyl sulfoxide (DMSO, Sigma-Aldrich, St. Louis, MO, cat. D2650), except for the platinum compounds which were prepared in saline (Quality Biological, Gaithersburg, MD, cat. 114-055-101), at 800-fold the tested concentration and stored at -70 degrees C prior to their use. All drugs and investigational agents were tested over a range starting from a high concentration at or near the clinical Cmax and decreasing in half-log increments. If the clinical Cmax for an agent had not been determined, the highest concentration tested was 10 microM, except for SN-38, which was tested at a high concentration of 1 microM.
Cell Culture. All cells were maintained in an incubator at 37 degrees C and 5% CO2 with 95% humidity. The PDC lines were cultured according to standard operating procedures established by the NCI PDMR (https://pdmr.cancer.gov). Table 3 of the manuscript, lists the cell lines along with the number of the three cell types plated to form the mct-spheroids and media for tumor cell growth. After thawing, all PDC lines, except 997537-175-T-J1-PDC and 415267-285-R-J2-PDC, were cultured in Matrigel-coated flasks prepared with a working solution of 1X Ham's F-12 nutrient mix, without supplementation (Thermo Fisher Scientific, cat. 11765054), 100 U/mL penicillin-streptomycin (Thermo Fisher Scientific, cat. 15140122), and 2.5% Matrigel (Corning Inc., Corning, NY, cat. 354248) for the first three passages. The two PDC lines 997537-175-T-J1-PDC and 415267-285-R-J2-PDC were cultured on uncoated flasks. The 857933-349-R-J2-PDC line was cultured in 6C/Colon 1B media containing advanced DMEM/F-12 (Thermo Fisher Scientific, cat. 12634028), 10 mM HEPES (Thermo Fisher Scientific, cat. 15630080), 1X GlutaMAX supplement (Thermo Fisher Scientific, cat. 35050061), 0.1 mg/mL primocin (InvivoGen, San Diego, CA, cat. ant-pm-2), 10% defined fetal bovine serum, heat inactivated (HyClone Laboratories Inc., Logan, UT, cat. SH30070.03HI), 50% L-WRN conditioned media (ATCC, cat. CRL-3276), 1.25 mM N-Acetyl-L-cysteine (Sigma-Aldrich, cat. A9165), 10 mM nicotinamide (Sigma-Aldrich, cat. N0636), 1X B-27 supplement (Thermo Fisher Scientific, cat. 17504044), 1X N-2 supplement (Thermo Fisher Scientific, cat. […]

[1] = second compound 0.0316 µM, first compound 0.0316 µM
[2] = second compound 0.0316 µM, first compound 0.1 µM
[3] = second compound 0.0316 µM, first compound 0.316 µM
[4] = second compound 0.0316 µM, first compound 1 µM
[5] = second compound 0.0316 µM, first compound 3.16 µM
[6] = second compound 0.0316 µM, first compound 10 µM
[7] = second compound 0.1 µM, first compound 0.0316 µM
[8] = second compound 0.1 µM, first compound 0.1 µM
[9] = second compound 0.1 µM, first compound 0.316 µM
[10] = second compound 0.1 µM, first compound 1 µM
[11] = second compound 0.1 µM, first compound 3.16 µM
[12] = second compound 0.1 µM, first compound 10 µM
[13] = second compound 0.316 µM, first compound 0.0316 µM
[14] = second compound 0.316 µM, first compound 0.1 µM
[15] = second compound 0.316 µM, first compound 0.316 µM
[16] = second compound 0.316 µM, first compound 1 µM
[17] = second compound 0.316 µM, first compound 3.16 µM
[18] = second compound 0.316 µM, first compound 10 µM
[19] = second compound 1 µM, first compound 0.0316 µM
[20] = second compound 1 µM, first compound 0.1 µM
[21] = second compound 1 µM, first compound 0.316 µM
[22] = second compound 1 µM, first compound 1 µM
[23] = second compound 1 µM, first compound 3.16 µM
[24] = second compound 1 µM, first compound 10 µM
[25] = second compound 3.16 µM, first compound 0.0316 µM
[26] = second compound 3.16 µM, first compound 0.1 µM
[27] = second compound 3.16 µM, first compound 0.316 µM
[28] = second compound 3.16 µM, first compound 1 µM
[29] = second compound 3.16 µM, first compound 3.16 µM
[30] = second compound 3.16 µM, first compound 10 µM
[31] = second compound 10 µM, first compound 0.0316 µM
[32] = second compound 10 µM, first compound 0.1 µM
[33] = second compound 10 µM, first compound 0.316 µM
[34] = second compound 10 µM, first compound 1 µM
[35] = second compound 10 µM, first compound 3.16 µM
[36] = second compound 10 µM, first compound 10 µM
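Note: spheroids exposed to compounds for 7 days before viability readout.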
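Throughout, for viability, T/C: luminescence signal used as surrogate for viable cell content; 100% = DMSO vehicle control viability.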

Nc1ccn(C2OC(CO)C(O)C2(F)F)c(=O)n1 (stereo unspecified) + Cc1cccc(N(C)C(=O)C2C(O)CCN2c2nc(C)cc(C(F)(F)F)c2C#N)c1
pIC50 (second compound 0.0316 µM): 5.00 | pIC50 (second compound 0.1 µM): < 5.00 | pIC50 (second compound 0.316 µM): 5.31 | pIC50 (second compound 1 µM): < 5.00 | pIC50 (second compound 3.16 µM): 5.27 | pIC50 (second compound 10 µM): < 5.00 | viability, T/C [1]: 67.6% | viability, T/C [2]: 58.3% | viability, T/C [3]: 51.4% | viability, T/C [4]: 53.3% | viability, T/C [5]: 53.5% | viability, T/C [6]: 52.6% | viability, T/C [7]: 82.3% | viability, T/C [8]: 68.8% | viability, T/C [9]: 51.8% | viability, T/C [10]: 59.8% | viability, T/C [11]: 55% | viability, T/C [12]: 56.1% | viability, T/C [13]: 62% | viability, T/C [14]: 63.5% | viability, T/C [15]: 54.6% | viability, T/C [16]: 58.9% | viability, T/C [17]: 54.9% | viability, T/C [18]: 43.8% | viability, T/C [19]: 66.9% | viability, T/C [20]: 52.5% | viability, T/C [21]: 52.3% | viability, T/C [22]: 49.6% | viability, T/C [23]: 53.1% | viability, T/C [24]: 50.3% | viability, T/C [25]: 72.3% | viability, T/C [26]: 63.8% | viability, T/C [27]: 55.4% | viability, T/C [28]: 55.4% | viability, T/C [29]: 56.1% | viability, T/C [30]: 45.1% | viability, T/C [31]: 69.2% | viability, T/C [32]: 63.4% | viability, T/C [33]: 62.9% | viability, T/C [34]: 58.5% | viability, T/C [35]: 59.7% | viability, T/C [36]: 58.8%

O=C(Nc1ccc(O)c(NS(=O)(=O)c2ccc(F)cc2)c1)c1ccc(-c2ccccc2)cc1 + Cc1cccc(N(C)C(=O)C2C(O)CCN2c2nc(C)cc(C(F)(F)F)c2C#N)c1
pIC50 (second compound 0.0316 µM): < 5.00 | pIC50 (second compound 0.1 µM): < 5.00 | pIC50 (second compound 0.316 µM): < 5.00 | pIC50 (second compound 1 µM): < 5.00 | pIC50 (second compound 3.16 µM): < 5.00 | pIC50 (second compound 10 µM): < 5.00 | viability, T/C [1]: 110% | viability, T/C [2]: 98.5% | viability, T/C [3]: 105% | viability, T/C [4]: 91.6% | viability, T/C [5]: 95% | viability, T/C [6]: 110% | viability, T/C [7]: 107% | viability, T/C [8]: 112% | viability, T/C [9]: 91.7% | viability, T/C [10]: 96% | viability, T/C [11]: 105% | viability, T/C [12]: 88.6% | viability, T/C [13]: 106% | viability, T/C [14]: 103% | viability, T/C [15]: 91.3% | viability, T/C [16]: 92.8% | viability, T/C [17]: 112% | viability, T/C [18]: 102% | viability, T/C [19]: 106% | viability, T/C [20]: 109% | viability, T/C [21]: 111% | viability, T/C [22]: 93.2% | viability, T/C [23]: 103% | viability, T/C [24]: 104% | viability, T/C [25]: 94.9% | viability, T/C [26]: 105% | viability, T/C [27]: 104% | viability, T/C [28]: 99.3% | viability, T/C [29]: 99.3% | viability, T/C [30]: 95.5% | viability, T/C [31]: 96.9% | viability, T/C [32]: 107% | viability, T/C [33]: 100% | viability, T/C [34]: 93.9% | viability, T/C [35]: 111% | viability, T/C [36]: 102%

O=C(c1cc(Cc2n[nH]c(=O)c3ccccc23)ccc1F)N1CCN(C(=O)C2CC2)CC1 + Cc1cccc(N(C)C(=O)C2C(O)CCN2c2nc(C)cc(C(F)(F)F)c2C#N)c1
pIC50 (second compound 0.0316 µM): < 5.00 | pIC50 (second compound 0.1 µM): < 5.00 | pIC50 (second compound 0.316 µM): < 5.00 | pIC50 (second compound 1 µM): < 5.00 | pIC50 (second compound 3.16 µM): < 5.00 | pIC50 (second compound 10 µM): < 5.00 | viability, T/C [1]: 104% | viability, T/C [2]: 110% | viability, T/C [3]: 87.7% | viability, T/C [4]: 101% | viability, T/C [5]: 102% | viability, T/C [6]: 94.8% | viability, T/C [7]: 103% | viability, T/C [8]: 104% | viability, T/C [9]: 90.4% | viability, T/C [10]: 102% | viability, T/C [11]: 99.9% | viability, T/C [12]: 90.8% | viability, T/C [13]: 94.4% | viability, T/C [14]: 92.1% | viability, T/C [15]: 103% | viability, T/C [16]: 88.4% | viability, T/C [17]: 106% | viability, T/C [18]: 92.2% | viability, T/C [19]: 103% | viability, T/C [20]: 89% | viability, T/C [21]: 87.8% | viability, T/C [22]: 106% | viability, T/C [23]: 94.3% | viability, T/C [24]: 87.7% | viability, T/C [25]: 92.9% | viability, T/C [26]: 93.2% | viability, T/C [27]: 111% | viability, T/C [28]: 103% | viability, T/C [29]: 96.8% | viability, T/C [30]: 98.9% | viability, T/C [31]: 100% | viability, T/C [32]: 93.3% | viability, T/C [33]: 91% | viability, T/C [34]: 102% | viability, T/C [35]: 102% | viability, T/C [36]: 107%
